In PubChem BioAssay (NCI):
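Protocol summary: plate cells (96-well), add compound at 5 concentrations, incubate 48 h, interpolate endpoints linearly. Definition used: TGI = concentration required for complete inhibition of growth.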

Legend:
Assay in all cases: NCI-60 cell line screen, 48 h
[1] = tested on: 786-0 renal
[2] = tested on: A498 renal
[3] = tested on: A549 NSCLC
[4] = tested on: ACHN renal
[5] = tested on: CAKI-1 renal
[6] = tested on: CCRF-CEM leukemia
[7] = tested on: DLD-1 colon
[8] = tested on: DMS 114 small cell lung
[9] = tested on: DMS 273 small cell lung
[10] = tested on: EKVX NSCLC
[11] = tested on: HCC-2998 colon
[12] = tested on: HCT-116 colon
[13] = tested on: HCT-15 colon
[14] = tested on: HL-60(TB) leukemia
[15] = tested on: HOP-18 NSCLC
[16] = tested on: HOP-62 NSCLC
[17] = tested on: HT29 colon
[18] = tested on: IGROV1 ovarian
[19] = tested on: K-562 leukemia
[20] = tested on: KM12 colon
[21] = tested on: KM20L2 colon
[22] = tested on: LOX IMVI melanoma
[23] = tested on: LXFL 529 NSCLC
[24] = tested on: M14 melanoma
[25] = tested on: M19-MEL melanoma
[26] = tested on: MALME-3M melanoma
[27] = tested on: MOLT-4 leukemia
[28] = tested on: NCI-H23 lung
[29] = tested on: NCI-H460 lung
[30] = tested on: NCI-H522 lung
[31] = tested on: OVCAR-4 ovarian
[32] = tested on: OVCAR-5 ovarian
[33] = tested on: OVCAR-8 ovarian
[34] = tested on: RPMI-8226 leukemia
[35] = tested on: RXF 393 renal
[36] = tested on: SF-268 CNS
[37] = tested on: SF-295 CNS
[38] = tested on: SF-539 CNS
[39] = tested on: SK-MEL-2 melanoma
[40] = tested on: SK-MEL-28 melanoma
[41] = tested on: SK-MEL-5 melanoma
[42] = tested on: SK-OV-3 ovarian
[43] = tested on: SN12C renal
[44] = tested on: SNB-19 CNS
[45] = tested on: SNB-75 CNS
[46] = tested on: SNB-78 CNS
[47] = tested on: SR leukemia
[48] = tested on: SW-620 colon
[49] = tested on: TK-10 renal
[50] = tested on: U251 CNS
[51] = tested on: UACC-257 melanoma
[52] = tested on: UACC-62 melanoma
[53] = tested on: UO-31 renal
[54] = tested on: XF 498 CNS
[55] = tested on: OVCAR-3 ovarian
[56] = tested on: RXF-631 renal

Structure (SMILES): CC(C)(C)c1cc(Cc2ccc(S(C)(=O)=O)cc2)c(O)c(C(C)(C)C)c1
- TGI [1]: 29.6 µM
- TGI [2]: 30.3 µM
- TGI [3]: 24.2 µM
- TGI [4]: 26.6 µM
- TGI [5]: 29.8 µM
- TGI [6]: 30.5 µM
- TGI [7]: 33 µM
- TGI [8]: 26.3 µM
- TGI [9]: 27.3 µM
- TGI [10]: 28.4 µM
- TGI [11]: 29.8 µM
- TGI [12]: 27 µM
- TGI [13]: 31 µM
- TGI [14]: 42 µM
- TGI [15]: 37.2 µM
- TGI [16]: 29.8 µM
- TGI [17]: 28.6 µM
- TGI [18]: 28.3 µM
- TGI [19]: 31.6 µM
- TGI [20]: 30.4 µM
- TGI [21]: 29.1 µM
- TGI [22]: 27.7 µM
- TGI [23]: 29.2 µM
- TGI [24]: 28.9 µM
- TGI [25]: 32.7 µM
- TGI [26]: 32.7 µM
- TGI [27]: 27.4 µM
- TGI [28]: 31.3 µM
- TGI [29]: 30.5 µM
- TGI [30]: 24.9 µM
- TGI [31]: 28.1 µM
- TGI [32]: 27.4 µM
- TGI [33]: 28.1 µM
- TGI [34]: 25.8 µM
- TGI [35]: 26.1 µM
- TGI [36]: 25.9 µM
- TGI [37]: 25.8 µM
- TGI [38]: 30.7 µM
- TGI [39]: 30.4 µM
- TGI [40]: 32 µM
- TGI [41]: 30 µM
- TGI [42]: 36.2 µM
- TGI [43]: 28.6 µM
- TGI [44]: 29 µM
- TGI [45]: 28 µM
- TGI [46]: 31.4 µM
- TGI [47]: 29.5 µM
- TGI [48]: 31.2 µM
- TGI [49]: 31.7 µM
- TGI [50]: 28.7 µM
- TGI [51]: 31 µM
- TGI [52]: 26 µM
- TGI [53]: 29.6 µM
- TGI [54]: 28.7 µM

Structure (SMILES): O=S(O)CCCCCSSc1ccc(Cl)cc1
- TGI [2]: 36.6 µM
- TGI [6]: > 100 µM
- TGI [7]: 67.5 µM
- TGI [10]: > 100 µM
- TGI [11]: 73.7 µM
- TGI [12]: 77.2 µM
- TGI [14]: > 100 µM
- TGI [16]: 41.3 µM
- TGI [17]: 70.5 µM
- TGI [19]: > 100 µM
- TGI [20]: 60.7 µM
- TGI [22]: 29.9 µM
- TGI [23]: 27 µM
- TGI [24]: 71.5 µM
- TGI [25]: 91 µM
- TGI [26]: 89.9 µM
- TGI [28]: 44.4 µM
- TGI [29]: > 100 µM
- TGI [30]: 28.5 µM
- TGI [55]: 31.3 µM
- TGI [31]: > 100 µM
- TGI [32]: 50.2 µM
- TGI [35]: 31.4 µM
- TGI [56]: 46.8 µM
- TGI [36]: 23.5 µM
- TGI [38]: 29.5 µM
- TGI [39]: 34.7 µM
- TGI [40]: 66.6 µM
- TGI [42]: > 100 µM
- TGI [43]: 31.1 µM
- TGI [44]: 91.4 µM
- TGI [45]: 56.2 µM
- TGI [46]: 70.3 µM
- TGI [49]: 54.4 µM
- TGI [50]: 21.7 µM
- TGI [51]: 59.3 µM
- TGI [53]: 26.3 µM
- TGI [54]: 36 µM
